According to patent EP2601931A2, “Cosmetic use of 3-methyl-1-phenyl-5-pyrazolon” (Henkel AG&Co. KGAA, priority 2011, dated 2013):

Columns and labels:
Kollagen-Neusynthese = assay: Collagen neosynthesis: P1NP secreted into the medium of a fibroblast / 3D epidermis model co-culture; assay type: cell-based; details: for P1NP: Co-Kultur-System, P1NP in medium, unbehandelt = 107
Excerpt: Ein in der Kosmetik relevanter Parameter für die Anti-Aging-Leistung eines Produktes ist die Induktion der Kollagen-Neusynthese. […] Zum Nachweis der Kollagen-Neusynthese wurde ein Co-Kultur-System verwendet, das aus einer zweidimensionalen Fibroblasten-Kultur besteht, auf die in einem Insert ein dreidimensionales Epidermismodell aufgesetzt wurde. Über das Nährmedium kann ein Stoffaustausch zwischen den Fibroblasten und den Keratinocyten des Epidermismodells erfolgen. […] Als Kontrollen für die Syntheseinduktion wurden Retinsäure und Retinol eingesetzt.

CYP26A1 = assay: RAMBA activity: change in CYP26A1 marker expression by qPCR in keratinocytes incubated with substance plus retinoic acid
Excerpt: Verschiedene kosmetische Wirkstoffe, die zur Stoffklasse der Azole gerechnet werden können, wurden auf eine mögliche RAMBA-Aktivität hin untersucht. Zu diesem Zweck wurden humane Keratinocyaten für 16 Stunden mit den entsprechenden Substanzen in Kombination mit Retinsäure inkubiert und anschließend mittels qPCR die Expressionsänderung des Markers CYP26A1 verfolgt. Das Enzym CYP26A1 bewirkt die Metabolisierung der Retinsäure und wird durch die Retinsäure selber induziert, wodurch eine Feedbak-Regulation der Retinsäurekonzentration in der Zelle ermöglicht wird. […] Tabelle 1

SMILES | P1NP (Kollagen-Neusynthese; 5µM) [µg/mL] | Rel. Expression CYP26A1 (CYP26A1; keratinocytes, 16 h, 0.01 µM) | P1NP (Kollagen-Neusynthese; 0,01%) [µg/mL] | Induktion der Kollagensynthese (Kollagen-Neusynthese; result in words on Tabelle 2) | Rel. Expression CYP26A1 (CYP26A1; 0,01% in combination with Retinsäure (RA, 10nM), humane Keratinocyten, 16 Stunden, qPCR, ethanol control = 1,0) | RAMBA-Aktivität (CYP26A1; comparison with Ketokonazol, result in words on Tabelle 1) | Induktion von CYP26A1 (CYP26A1; in combination with Retinsäure, result in words on Tabelle 1)
CC1=C(/C=C/C(C)=C/C=C/C(C)=C/CO)C(C)(C)CCC1 [Retinol, reference compound] | 146 | – | – | – | – | – | –
CC1=C(/C=C/C(C)=C/C=C/C(C)=C/C(=O)O)C(C)(C)CCC1 [Retinsäure, reference compound] | 200 | 37,6 | – | – | – | – | –
CC1=NN(c2ccccc2)C(=O)C1 [3-Methyl-1-phenyl-5-pyrazolon] | – | – | 129 | zeigen eine Induktion der Kollagensynthese | 1,3 | in etwa die gleiche RAMBA-Aktivität wie Ketokonazol | deutlich vermindert
